From patent publication US20070004766A1, “Methods for relaxation of smooth muscle contractions using Trospium” (priority 2005, published 2007)

Columns and labels:
[1] = biological target: T1, human recombinant muscarinic receptor M-3 (Homo sapiens, UniProt P20309); test: biochemical; assay type: binding
T1 construct: expressed in transfected cells; host or cells: Sf9 insect cells (membranes)

[2] = tested on: bladder smooth muscle strips; test: Antimuscarinic activity on bladder smooth muscle strips (carbachol-induced contractions); assay type: cell-based, guinea pigs; conditions: Cavia porcellus, read-out: KB, inhibition of carbachol-induced contractions

T1 sequence (P20309 whole entry): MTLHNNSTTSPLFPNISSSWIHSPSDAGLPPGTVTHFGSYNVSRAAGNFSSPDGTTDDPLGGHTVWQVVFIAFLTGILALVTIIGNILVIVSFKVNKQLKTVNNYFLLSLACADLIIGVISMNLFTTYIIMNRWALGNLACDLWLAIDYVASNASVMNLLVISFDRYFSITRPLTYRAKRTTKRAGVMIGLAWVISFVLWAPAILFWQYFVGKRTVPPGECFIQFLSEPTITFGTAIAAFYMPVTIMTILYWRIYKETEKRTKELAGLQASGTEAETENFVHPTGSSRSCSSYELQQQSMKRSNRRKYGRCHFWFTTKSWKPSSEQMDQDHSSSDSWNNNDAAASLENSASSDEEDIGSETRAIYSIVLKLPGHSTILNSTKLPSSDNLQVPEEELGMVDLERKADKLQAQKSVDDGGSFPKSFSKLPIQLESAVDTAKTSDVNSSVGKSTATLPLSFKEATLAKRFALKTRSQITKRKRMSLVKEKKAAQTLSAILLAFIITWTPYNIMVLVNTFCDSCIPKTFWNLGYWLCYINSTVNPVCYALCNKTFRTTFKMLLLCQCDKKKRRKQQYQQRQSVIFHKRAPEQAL

SMILES	Ki [1] [nM]	Kb [2] [nM]
O=C(OC1CC2CCC(C1)[N+]21CCCC1)C(O)(c1ccccc1)c1ccccc1 (stereo not drawn) [Trospium, 3α-hydroxy-spiro[1αH,5αH-nortropane-8,1′-pyrrolidinium]chloride benzilate]	0.501	1.5 to 5.5
Cc1ccc(O)c([C@H](CCN(C(C)C)C(C)C)c2ccccc2)c1 [Tolterodine]	–	1.5 to 5.5
